From PMC2914301 (Cancer research, 2009)
Entries after “also recorded” stand apart in the source; their conditions may differ.

What was measured:
[1] = tested on: BxPC-3 pancreatic cancer xenografts; assay: Antitumor activity against BxPC-3 xenografts in scid mice; assay type: in vivo; conditions: 125 mg/kg i.p. twice a day for 5 days
Panc-1 = assay: Morphologic apoptosis assay in Panc-1 cells; assay type: cell-based, Human
phospho-Ser^241-PDK1 = assay: Western analysis of phospho-Ser241-PDK1 in BxPC-3 cells; assay type: cell-based, Human; conditions: at higher concentrations
PH domain of PDK1 [2] = molecular target: T1, PH domain of PDK1 (Homo sapiens, UniProt O15530); assay: SPR competitive binding
T1 sequence (O15530 459-550 limits assumed): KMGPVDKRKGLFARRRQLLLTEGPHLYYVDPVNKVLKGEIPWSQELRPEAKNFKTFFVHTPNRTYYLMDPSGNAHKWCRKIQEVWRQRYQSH

PH domain of PDK1 [3] = molecular target: T1, PH domain of PDK1; assay: SPR direct binding to PDK1 PH domain
[4] = Preliminary single-dose toxicity, i.p.; assay type: in vivo; conditions: single doses up to 250 mg/kg i.p.; preliminary studies
GSK3β and p70S6K = assay: Western analysis of AKT downstream targets in BxPC-3 cells; assay type: cell-based, Human; conditions: Western blot
MiaPaCa-2 = assay: Morphologic apoptosis assay in MiaPaCa-2 cells; assay type: cell-based, Human

Q: Which Antitumor activity [1] does the source give for `CCCCCCCCCCCCc1ccc(S(=O)(=O)Nc2nncs2)cc1` [Compound 27, 4-dodecyl-N-(1,3,4-thiadiazol-2-yl) benzenesulfonamide] here?
A: significant antitumor activity with cessation of tumor growth and even regression; also recorded: complete cessation of tumor growth and even some regression

Q: And the “Apoptosis at 20 μmol/L” value (Panc-1)?
A: 40.0 ± 2.9%

Q: What about the “Effect on phosphorylation of PDK1 on Ser241 (in words)” value (phospho-Ser^241-PDK1) of the same compound?
A: slightly affected

Q: What about the Ki (PH domain of PDK1 [2]) of the same compound?
A: 5.5 µM

Q: What about the Kd (PH domain of PDK1 [3]) of the same compound?
A: 90.1 µM

Q: And the “Toxicity of single doses” value [4]?
A: no toxicity

Q: What about the “Effect on GSK3β and p70S6K phosphorylation (in words)” value (GSK3β and p70S6K) of the same compound?
A: inhibited in a dose-dependent manner

Q: What about the “Apoptosis at 20 μmol/L” value (MiaPaCa-2) of the same compound?
A: 31.3 ± 1.6%
